Patent publication US20220244279A1, “ASSAYS AND METHODS FOR SCREENING FOR CARDIOVASCULAR DISEASE USING LDL SUBCLASSES AND ENDOTHELIAL NITRIC OXIDE/PEROXYNITRITE BALANCE” (Ohio University, priority 2019, published 2022)
“Also recorded” adds a separate entry of the source.

Tested on: human umbilical vein endothelial cells (HUVECs)
Test: Effect of eNOS pathway modulators on LDL-stimulated NO and ONOO− release
Type: cell-based
Settings: for ONOO− production after pre-treatment vs control / NO production after pre-treatment vs control: 30 min pre-treatment, then LDL subclass A, B or I 800 μg/mL; for [NO]/[ONOO−] ratio with subclass I: pre-treatment, then subclass I 800 μg/mL; for effect on ratio of [NO]/[ONOO−]: modulators of L-arginine/NO pathway
Protocol: Concurrent measurements of NO and ONOO^− were performed with electrochemical nanosensors (diameter: 200-300 nm). The designs of nanosensors are based on chemically modified carbon-fiber technology. Each of those sensors was made by depositing a sensing material on the tip of the carbon fiber. A conductive film of polymeric nickel (II) tetrakis (3-methoxy-4hydroxy-phenyl) porphyrinic was used for the NO sensor and a polymeric film of Mn (III)-paracyclophanyl-porphyrin was used for the ONOO^− sensor. NO and ONOO^− release from its basal level were measured by using amperometry with time (detection limit of 1 nmol/L and resolution time <50 ms). Each sensor was calibrated by using linear calibration curves from 50 nmol/L to 1000 nmol/L and/or standard addition methods before and after measurements with aliquots of NO or ONOO^− standard solutions, respectively.
Endothelial cells were seeded to 24 well plates and cultured in complete medium until confluent monolayer formed. Then the study was carried out as follows:
A control group was incubated in EBM only. After incubation, endothelial cells were stimulated with direct injection of subclasses A, B and I (800 μg/mL), and the release of NO/ONOO^− was measured with nanosensors.

Row | Structure (SMILES) | ONOO− production after pre-treatment vs control | [NO]/[ONOO−] ratio with subclass I | NO production after pre-treatment vs control | effect on ratio of [NO]/[ONOO−] | decrease of ONOO− concentration (VAS2870 10 μmol/L, LDL 800 μg/mL)
1 | COC(=O)[C@@H](N)CCCNC(=N)N[N+](=O)[O-] [L-NAME, L-N^G-arginine methyl ester] | diminished | lower than one | – | – | –
2 | C[C@H](O)C(=O)C1=Nc2c(nc(N)[nH]c2=O)NC1 [sepiapterin] | diminished; also recorded: lower level of ONOO^− | greater than one | higher level of NO | favorably increasing the ratio of [NO]/[ONOO^−] | –
3 | c1ccc(Cn2nnc3c(Sc4nc5ccccc5o4)ncnc32)cc1 [VAS2870] | diminished | – | – | – | 20-27 % of control group
4 | N=C(N)NCCC[C@H](N)C(=O)O [L-arginine] | diminished; also recorded: decrease ONOO^− generation | greater than one | increase NO production | favorably increasing the ratio of [NO]/[ONOO^−] | –
